Measurements reported in publication PMC3956608 (PLoS ONE, 2014).
pKd, pKi: −log10 of the molar value.

Experiments:
[1] = target: T1, acetylcholine binding protein (Ls-AChBP) (Lymnaea stagnalis, UniProt P58154); assay: biochemical
[2] = target: T1, acetylcholine binding protein (Ls-AChBP); assay: radioligand binding, HEK-293 cell homogenate; parameters: Ls-AChBP linked to a 5HT3 receptor ion channel (Ls-AChBP-5HT3 receptor chimera); settings: cited from earlier work

T1 sequence (P58154 20-229): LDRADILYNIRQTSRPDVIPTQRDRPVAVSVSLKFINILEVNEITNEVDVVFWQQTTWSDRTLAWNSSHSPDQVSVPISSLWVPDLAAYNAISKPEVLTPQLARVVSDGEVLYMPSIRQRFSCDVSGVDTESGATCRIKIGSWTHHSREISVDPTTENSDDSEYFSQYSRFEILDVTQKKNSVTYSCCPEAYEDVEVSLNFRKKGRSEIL

| SMILES | pKi [1] | pKd [2] |
| --- | --- | --- |
| CC(=O)OCC[N+](C)(C)C [acetylcholine] | 5.82 |  |
| Clc1ccc(C2CC3CCC2N3)cn1 (centres unmarked) [[3H]-epibatidine] |  | 10.01 |
